Results taken from PubChem BioAssay AID192 (DTP/NCI, 2004).
Values joined by “and” are separate entries in the source; they are usually repeats but may differ in a detail not shown here. Equal entries are not always repeated. Toxic doses and inconclusive results are not listed. Rule for the calls: active = survival T/C of 150% or more; inactive = T/C below 125% in these data.

System: BDF1 mice, B16 melanoma ip, median survival T/C
Experiment: NCI In Vivo Anticancer Drug Screen. Data for tumor model B16 Melanoma (intraperitoneal) in B6D2F1 (BDF1) mice
Conditions: endpoint: median survival time, higher = longer survival
In short: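 The ratio T/C compares compound-treated mice with vehicle-treated controls, using survival or tumor size as the endpoint in a transplantable tumor model.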

[1] = dose: 100.0 mg/kg/injection, schedule: Q01DX009 (ip), vehicle: Klucel (hydroxypropylcellulose) (HPC)
[2] = dose: 200.0 mg/kg/injection, schedule: Q01DX009 (ip), vehicle: Klucel (hydroxypropylcellulose) (HPC)
[3] = dose: 400.0 mg/kg/injection, schedule: Q01DX009 (ip), vehicle: Klucel (hydroxypropylcellulose) (HPC)
[4] = dose: 6.25 mg/kg/injection, schedule: Q01DX009 (ip), vehicle: Klucel (hydroxypropylcellulose) (HPC)
[5] = dose: 12.5 mg/kg/injection, schedule: Q01DX009 (ip), vehicle: Klucel (hydroxypropylcellulose) (HPC)
[6] = dose: 50.0 mg/kg/injection, schedule: Q01DX009 (ip), vehicle: saline with Tween-80

Measured: T/C

CC(=O)CC(=O)Nc1cccc(C)c1C
inactive: [1] 94 % of control | [2] 86 % of control | [3] 94 % of control

CCCCCCCCCCCCCCCC(=O)O[C@@]12C[C@@H](C)[C@@]3(O)[C@@H](C=C(CO)C[C@]4(O)C(=O)C(C)=C[C@@H]34)[C@@H]1C2(C)C
inactive: dose: 0.03 mg/kg/injection, schedule: Q01DX009 (ip), vehicle: saline + Tween-80 + alcohol 103 % of control | dose: 0.03 mg/kg/injection, schedule: Q01DX009 (ip), vehicle: saline 94 % of control | dose: 0.06 mg/kg/injection, schedule: Q01DX009 (ip), vehicle: saline + Tween-80 + alcohol 109 % of control | dose: 0.06 mg/kg/injection, schedule: Q01DX009 (ip), vehicle: saline 99 % of control | dose: 0.12 mg/kg/injection, schedule: Q01DX009 (ip), vehicle: saline 96 % of control | dose: 0.13 mg/kg/injection, schedule: Q01DX009 (ip), vehicle: other 103 % of control | dose: 0.13 mg/kg/injection, schedule: Q01DX009 (ip), vehicle: saline + Tween-80 + alcohol 110 % of control | dose: 0.25 mg/kg/injection, schedule: Q01DX009 (ip), vehicle: saline 92 % of control | dose: 0.5 mg/kg/injection, schedule: Q01DX009 (ip), vehicle: saline 92 % of control

O=S(c1ccccc1)c1c(Cl)c(Cl)nc(Cl)c1Cl (stereo unspecified)
inactive: [4] 94 % of control | [5] 100 % of control

CN(/N=N/c1nc[nH]c1C(N)=O)C(C)(C)C
inactive: dose: 18.75 mg/kg/injection, schedule: Q04DX002 (ip), vehicle: Klucel (hydroxypropylcellulose) (HPC) 101 % of control | dose: 37.5 mg/kg/injection, schedule: Q04DX002 (ip), vehicle: Klucel (hydroxypropylcellulose) (HPC) 107 % of control | dose: 75.0 mg/kg/injection, schedule: Q04DX002 (ip), vehicle: Klucel (hydroxypropylcellulose) (HPC) 98 % of control | [1] 95 % of control | dose: 150.0 mg/kg/injection, schedule: Q04DX002 (ip), vehicle: Klucel (hydroxypropylcellulose) (HPC) 101 % of control | [2] 90 % of control | dose: 300.0 mg/kg/injection, schedule: Q04DX002 (ip), vehicle: Klucel (hydroxypropylcellulose) (HPC) 93 % of control | [3] 104 % of control

CC(=N\[O-])/C(C)=N/O.CC(=N\[O-])/C(C)=N/O.CC(=O)[O-].CC(=O)[O-].O.[Rh+2].[Rh+2]
inactive: dose: 1.56 mg/kg/injection, schedule: Q01DX009 (ip), vehicle: saline 115 % of control | dose: 25.0 mg/kg/injection, schedule: Q01DX009 (ip), vehicle: saline 115 % of control

O=C1N(Cl)C(=O)C(c2ccc(Cl)cc2)(c2ccc(Cl)cc2)N1Cl
inactive: dose: 1.56 mg/kg/injection, schedule: Q01DX009 (ip), vehicle: Klucel (hydroxypropylcellulose) (HPC) 104 % of control | dose: 3.12 mg/kg/injection, schedule: Q01DX009 (ip), vehicle: Klucel (hydroxypropylcellulose) (HPC) 96 % of control | [4] 104 % of control | [5] 104 % of control | dose: 25.0 mg/kg/injection, schedule: Q01DX009 (ip), vehicle: Klucel (hydroxypropylcellulose) (HPC) 114 % of control and 101 % of control | dose: 25.0 mg/kg/injection, schedule: Q02DX009 (ip), vehicle: Klucel (hydroxypropylcellulose) (HPC) 103 % of control | dose: 50.0 mg/kg/injection, schedule: Q01DX009 (ip), vehicle: Klucel (hydroxypropylcellulose) (HPC) 112 % of control | dose: 50.0 mg/kg/injection, schedule: Q02DX009 (ip), vehicle: Klucel (hydroxypropylcellulose) (HPC) 99 % of control | [1] 118 % of control | dose: 100.0 mg/kg/injection, schedule: Q02DX009 (ip), vehicle: Klucel (hydroxypropylcellulose) (HPC) 106 % of control | [2] 117 % of control | dose: 200.0 mg/kg/injection, schedule: Q02DX009 (ip), vehicle: Klucel (hydroxypropylcellulose) (HPC) 96 % of control | [3] 118 % of control

CO[C@H]1Nc2c(ccc(C)c2O)C(=O)N2C=C(/C=C/C(N)=O)C[C@@H]12
inactive: dose: 0.05 mg/kg/injection, schedule: Q04DX003 (ip), vehicle: DMSO 111 % of control | dose: 0.06 mg/kg/injection, schedule: Q01DX009 (ip), vehicle: saline with Tween-80 92 % of control | dose: 0.1 mg/kg/injection, schedule: Q04DX003 (ip), vehicle: DMSO 101 % of control | dose: 0.12 mg/kg/injection, schedule: Q01DX009 (ip), vehicle: saline with Tween-80 94 % of control | dose: 0.2 mg/kg/injection, schedule: Q04DX003 (ip), vehicle: DMSO 120 % of control | dose: 0.25 mg/kg/injection, schedule: Q01DX009 (ip), vehicle: saline with Tween-80 97 % of control | dose: 0.4 mg/kg/injection, schedule: Q04DX003 (ip), vehicle: DMSO 112 % of control | dose: 16.5 micrograms/kg/injection, schedule: Q01DX009 (ip), vehicle: saline + alcohol 106 % of control | dose: 25.0 micrograms/kg/injection, schedule: Q01DX009 (ip), vehicle: saline with Tween-80 100 % of control | dose: 25.0 micrograms/kg/injection, schedule: Q04DX003 (ip), vehicle: saline with Tween-80 101 % of control | dose: 33.0 micrograms/kg/injection, schedule: Q01DX009 (ip), vehicle: saline + alcohol 100 % of control | dose: 50.0 micrograms/kg/injection, schedule: Q01DX009 (ip), vehicle: saline with Tween-80 104 % of control | dose: 50.0 micrograms/kg/injection, schedule: Q04DX003 (ip), vehicle: saline with Tween-80 104 % of control | dose: 66.0 micrograms/kg/injection, schedule: Q01DX009 (ip), vehicle: saline + alcohol 107 % of control | dose: 100.0 micrograms/kg/injection, schedule: Q01DX009 (ip), vehicle: saline with Tween-80 96 % of control | dose: 100.0 micrograms/kg/injection, schedule: Q04DX003 (ip), vehicle: saline with Tween-80 111 % of control | dose: 200.0 micrograms/kg/injection, schedule: Q01DX009 (ip), vehicle: saline with Tween-80 95 % of control | dose: 200.0 micrograms/kg/injection, schedule: Q04DX003 (ip), vehicle: saline with Tween-80 107 % of control

CCCNC1=C(N2CC2)C(=O)C(NCCC)=C(N2CC2)C1=O
inactive: dose: 1.25 mg/kg/injection, schedule: Q01DX009 (ip), vehicle: saline 108 % of control

O=C(NC(Cc1ccc(O)cc1)C(=O)O)c1ccccc1 (stereo unspecified)
inactive: [6] 105 % of control | dose: 100.0 mg/kg/injection, schedule: Q01DX009 (ip), vehicle: saline with Tween-80 100 % of control | dose: 200.0 mg/kg/injection, schedule: Q01DX009 (ip), vehicle: saline with Tween-80 89 % of control | dose: 400.0 mg/kg/injection, schedule: Q01DX009 (ip), vehicle: saline with Tween-80 88 % of control

CCCCCCCCCCCCCC(=O)OC12CC(C)C3(O)C(C=C(CO)C(O)C4(O)C(=O)C(C)=CC43)C1C2(C)C (stereo unspecified)
inactive: dose: 0.01 mg/kg/injection, schedule: Q01DX009 (ip), vehicle: saline + alcohol 99 % of control | dose: 0.03 mg/kg/injection, schedule: Q01DX009 (ip), vehicle: saline + alcohol 107 % of control | dose: 0.06 mg/kg/injection, schedule: Q01DX009 (ip), vehicle: saline + alcohol 104 % of control | dose: 0.12 mg/kg/injection, schedule: Q01DX009 (ip), vehicle: saline + alcohol 94 % of control | dose: 0.13 mg/kg/injection, schedule: Q01DX009 (ip), vehicle: saline + alcohol 100 % of control

CCCCNS(=O)(=O)c1ccc(OC)c(N)c1
inactive: dose: 100.0 mg/kg/injection, schedule: Q04DX003 (ip), vehicle: Klucel (hydroxypropylcellulose) (HPC) 95 % of control | dose: 200.0 mg/kg/injection, schedule: Q04DX003 (ip), vehicle: Klucel (hydroxypropylcellulose) (HPC) 95 % of control | dose: 400.0 mg/kg/injection, schedule: Q04DX003 (ip), vehicle: Klucel (hydroxypropylcellulose) (HPC) 111 % of control

O=C(Nc1ccccc1)Oc1ccc(OCc2ccccc2)cc1
inactive: dose: 12.5 mg/kg/injection, schedule: Q01DX009 (ip), vehicle: saline with Tween-80 96 % of control | dose: 25.0 mg/kg/injection, schedule: Q01DX009 (ip), vehicle: saline with Tween-80 93 % of control | [6] 92 % of control
